Laboratory results taken from patent US20080003127A1, “Non-Ferrous Metal Cover Gases” (Honeywell International Inc., priority 2006, published 2008).
Like-named read-outs stand apart in the source and are kept apart here.

Tests used:
[1] = Boiling point; format: physicochemical; conditions: for normal boiling point: trans- vs cis-isomer
Procedure: In addition, preferred cover gas compositions of the present invention comprise […] compounds wherein each compound present in more than an insubstantial amount has a boiling point of less than about 25° C., and even more preferably less than about 0° C. Cover gases that have boiling points close to or above room temperature (i.e. which are liquids at room temperature) typically require additional metering equipment to disperse the cover gas material in a controlled fashion onto the surface of the molten metal.

[2] = test system: test subject (e.g. mice); conditions: single 4-hour exposure; comparison compound; cited from earlier work
[3] = cardiac sensitization tests; comparison compound; cited from earlier work
[4] = Mg cover gas test: magnesium pieces in quartz tube, oven heated to about 700° C. under cover gas flow, visual inspection; conditions: for relative performance as cover gas: at about 0.5% by volume; for performance as cover gas: concentrations at or above about 1.5% by volume
Procedure: A quartz tube having a well was equipped with a metered source of cover gas and a thermocouple which was placed in the well. The well was filled with about 0.2 to 0.3 g of solid magnesium pieces. The cover gas was a mixture of air (a carrier gas) and trans-HFO-1234ze. […]
The tube containing the magnesium was placed in an oven. A flow of cover gas through the tube and over the well containing the magnesium was then established at about 1 liter/minute. The oven was then heated to about 700° C. The flow of cover gas proceeded until a surface film was formed on the magnesium or the magnesium ignited.
After the test was complete, the magnesium was removed from the oven and visually inspected to determine the quality of the cover gas.
The experiments of Examples 1-5 were repeated, except that the cover gas contained […] SF6 or HFC-134a.

[5] = Toxicity, stated in words (no method given); conditions: comparison in words, found by applicants
[6] = test system: test subject (e.g. mice); test: 4-hour LC-50 (concentration in air that kills 50% of test subjects, single exposure); format: in vivo; conditions: single 4-hour exposure
Procedure: Preferably, fluoroolefins used in the present compositions have low or no toxicity. In this regard, it is preferred that fluoroolefin components that a present in the compositions in more than an insubstantial amount have a LC-50 value of at least about 100,000 ppm, and more preferably at least about 200,000 ppm. As used herein, the term “LC-50 value” means the concentration of the fluoroolefin in air that will kill 50% of test subject (e.g. mice) when administered as a single exposure (e.g. 4 hours). […] For comparison, C2F5C(O)CF(CF3)2 (a fluoroketone cover gas marketed by Minnesota Mining and Manufacturing Co. of St. Paul, Minn., under the tradename Novec™) has a 4-hour LC-50 of about 100,000.

[7] = background statement in words; cited from earlier work
[8] = 1.5 Vol. % of F-Source in Air, about 700° C.
[9] = 4.5 Vol. % of F-Source in Air, about 700° C.

Compound: O=C(C(F)(F)C(F)(F)F)C(F)(C(F)(F)F)C(F)(F)F [C2F5C(O)CF(CF3)2]
- Boiling Point (° C.) ([1]; Table A): 49 °C
- 4-hour LC-50 [2]: about 100,000 ppm
- NOAEL [3]: 10 vol. %

Compound: FC(F)(F)C(F)(F)F [C2F6]
- Boiling Point (° C.) ([1]; Table A): −78 °C

Compound: O=C=O [CO2, carbon dioxide]
- Boiling Point (° C.) [1]: −78 °C

Compound: FCC(F)(F)F [HFC-134a, 1,1,1,2-tetrafluoroethane]
- Boiling Point (° C.) ([1]; Table A): −26 °C
- Quality of Mg Protection ([4]; 0.10 Vol. % of F-Source in Air, about 700° C.): most brown specks, protected in general
- Quality of Mg Protection ([4]; 0.60 Vol. % of F-Source in Air, about 700° C.): white coating with no brown spots
- Quality of Mg Protection [4, 8]: white coating; pieces not stuck together
- Quality of Mg Protection [4, 9]: white coating; pieces not stuck together
- relative performance as cover gas [4]: performing better than SF6
- performance as cover gas [4]: performed well

Compound: CC(F)F [HFC-152a, difluoroethane]
- Boiling Point (° C.) ([1]; Table A): −25 °C

Compound: C=C(Cl)C(F)(F)F [HFCO-1233xf, 1,1,1-trifluoro-2-chloro-propene]
- Boiling Point (° C.) ([1]; Table A): +12 °C

Compound: FC(F)=CC(F)(F)F [HFO-1225zc, CF3CH═CF2]
- relative toxicity between isomers [5]: much more toxic

Compound: C=C(F)C(F)(F)F [HFO-1234yf, 1,1,1,2-tetrafluoropropene]
- Boiling Point (° C.) ([1]; Table A): −30 °C
- 4-hour LC-50 [6]: at least 200,000 ppm

Compound: FC=CC(F)(F)F [HFO-1234ze, 1,1,1,3-tetrafluoropropene]
- 4-hour LC-50 [6]: at least 100,000 ppm

Compound: FN(F)F [NF3, nitrogen trifluoride]
- Boiling Point (° C.) ([1]; Table A): −121 °C
- toxicity (known) [7]: toxic and/or hazardous

Compound: FS(F)(F)(F)(F)F [SF6, sulfurhexafluoride]
- Boiling Point (° C.) ([1]; Table A): −82 °C
- Quality of Mg Protection ([4]; 0.11 Vol. % of F-Source in Air, about 700° C.): failure; Mg ignited
- Quality of Mg Protection ([4]; 0.20 Vol. % of F-Source in Air, about 700° C.): several brownish regions, very little luster,
- Quality of Mg Protection ([4]; 0.43 Vol. % of F-Source in Air, about 700° C.): coating less white; brownish regions;
- Quality of Mg Protection [4, 8]: white coating; pieces not stuck together
- Quality of Mg Protection [4, 9]: white coating; pieces not stuck together
- performance as cover gas [4]: performed well
- toxicity (known) [7]: non-toxic

Compound: O=S(=O)(F)F [SO2F2, sulfuryl fluoride]
- Boiling Point (° C.) ([1]; Table A): −55 °C
- toxicity (known) [7]: toxic and/or hazardous

Compound: FB(F)F [boron trifluoride (BF3), boron trifluoride]
- toxicity (known) [7]: very toxic

Compound: FC(F)(F)/C=C\Cl [cis-HFCO-1233zd, cis-1,1,1-trifluoro-3-chloro-propene]
- Boiling Point (° C.) ([1]; Table A): +19 °C

Compound: F/C=C(\F)C(F)(F)F [cis-HFO-1225ye, cis-1,1,1,2,3-pentafluoropropene]
- relative toxicity between isomers [5]: relatively low degree of toxicity

Compound: F/C=C(\F)C(F)F [cis-HFO-1234ye]
- Boiling Point (° C.) [1]: +2 °C

Compound: FC=CC(F)(F)F [cis-HFO-1234ze, 1,1,1,3-tetrafluoropropene]
- normal boiling point [1]: 9 °C

Compound: O=NF [nitrosyl fluoride]
- toxicity (known) [7]: toxic and/or hazardous

Compound: FC(F)(F)/C=C/Cl [trans-HFCO-1233zd, trans-1,1,1-trifluoro-3-chloro-propene]
- Boiling Point (° C.) ([1]; Table A): +19 °C

Compound: F/C=C/C(F)(F)F [trans-HFO-1234ze, trans-1,3,3,3-tetrafluoropropene]
- Boiling Point (° C.) ([1]; Table A): −18.4 °C
- normal boiling point [1]: −18.4 °C
- relative toxicity between isomers [5]: less toxic than the cis-isomer
- Quality of Mg Protection ([4]; 0.09 Vol. % of F-Source in Air, about 700° C.): a few brown specks, well protected in general
- Quality of Mg Protection ([4]; 0.26 Vol. % of F-Source in Air, about 700° C.): white with dark spots, no pieces stuck together
- Quality of Mg Protection ([4]; 0.46 Vol. % of F-Source in Air, about 700° C.): white coating with no brown spots
- Quality of Mg Protection [4, 8]: white coating; pieces not stuck together
- Quality of Mg Protection [4, 9]: white coating; pieces not stuck together
- protection of magnesium (visual inspection) ([4]; Example 1: about 4.5% by volume in air, about 700° C.): well protected
- protection of magnesium (visual inspection) ([4]; Example 2: about 1.5% by volume in air): well protected
- protection of magnesium (visual inspection) ([4]; Example 3: about 0.5% by volume in air): well protected
- protection of magnesium (visual inspection) ([4]; Example 4: about 0.2% by volume in air): well protected
- protection of magnesium (visual inspection) ([4]; Example 5: about 0.1% by volume in air): protected in general
- relative performance as cover gas [4]: performing better than HFC-134a
- performance as cover gas [4]: performed well

Compound: methoxy-nonafluorobutane [HFE-7100]
- Boiling Point (° C.) ([1]; Table A): 61 °C
